Each structure is given as a SMILES string.

T1 sequence (O15399 28-1336, other chains not shown): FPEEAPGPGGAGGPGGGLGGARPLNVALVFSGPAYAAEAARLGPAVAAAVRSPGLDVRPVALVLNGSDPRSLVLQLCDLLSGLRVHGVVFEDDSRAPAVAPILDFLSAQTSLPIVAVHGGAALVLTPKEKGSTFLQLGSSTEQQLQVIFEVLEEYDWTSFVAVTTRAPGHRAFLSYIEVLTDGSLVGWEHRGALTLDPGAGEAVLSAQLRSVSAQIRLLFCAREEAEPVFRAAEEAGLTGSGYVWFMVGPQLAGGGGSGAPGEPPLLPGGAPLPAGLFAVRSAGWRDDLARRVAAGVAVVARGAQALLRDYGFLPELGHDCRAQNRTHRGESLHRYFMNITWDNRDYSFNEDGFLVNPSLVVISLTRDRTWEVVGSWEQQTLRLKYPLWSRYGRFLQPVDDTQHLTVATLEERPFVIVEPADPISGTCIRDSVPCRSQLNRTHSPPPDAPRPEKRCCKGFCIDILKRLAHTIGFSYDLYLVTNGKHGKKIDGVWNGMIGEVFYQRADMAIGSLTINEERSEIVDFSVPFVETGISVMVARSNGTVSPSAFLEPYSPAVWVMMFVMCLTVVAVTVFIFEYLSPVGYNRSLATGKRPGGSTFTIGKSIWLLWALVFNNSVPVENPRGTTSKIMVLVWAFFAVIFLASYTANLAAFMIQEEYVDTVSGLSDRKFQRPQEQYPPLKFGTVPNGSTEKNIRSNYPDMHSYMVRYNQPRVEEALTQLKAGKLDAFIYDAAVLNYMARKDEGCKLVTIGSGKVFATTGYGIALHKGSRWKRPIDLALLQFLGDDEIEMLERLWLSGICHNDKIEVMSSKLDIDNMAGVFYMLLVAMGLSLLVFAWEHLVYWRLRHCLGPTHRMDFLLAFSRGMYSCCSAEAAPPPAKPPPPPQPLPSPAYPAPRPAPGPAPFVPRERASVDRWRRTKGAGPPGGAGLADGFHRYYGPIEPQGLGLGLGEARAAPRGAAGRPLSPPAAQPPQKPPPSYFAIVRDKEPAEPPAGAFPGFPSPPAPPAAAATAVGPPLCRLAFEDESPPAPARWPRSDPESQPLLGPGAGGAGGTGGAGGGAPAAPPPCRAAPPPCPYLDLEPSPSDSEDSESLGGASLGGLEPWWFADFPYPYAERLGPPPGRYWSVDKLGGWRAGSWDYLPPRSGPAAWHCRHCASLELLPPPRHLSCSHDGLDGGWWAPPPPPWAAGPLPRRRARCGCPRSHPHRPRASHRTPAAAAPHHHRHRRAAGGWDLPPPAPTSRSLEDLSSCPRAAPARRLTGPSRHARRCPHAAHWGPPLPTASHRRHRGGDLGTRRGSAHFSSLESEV

The first assay addresses T1, human GRIN1 (variant NR1-3) and GRIN2D expressed in HEK293 cells (Homo sapiens, UniProt O15399).
T1 construct: GenScript (GRIN2D synthesis) SC115601; host or cells: HEK293
As to the kind of experiment: GluN2D PAM CIQ fluorescence assay (Fluo-8 calcium, FDSS 6000). The assay is classed as cell-based. As to conditions: relative to CIQ (100 uM) = 100%, read-out: NR2D Percent CIQ Avg Max Measured Effect. On the procedure:
GluN2D PAM CIO Flourescence AssayHEK293 cells were transfected to express human GRIN1 (variant NR1-3, Origene, SKU #: SC115601, Rockville, Md.) and GRIN2D (NCBI locus NM_000836, sequence optimized and synthesized by GenScript) and grown as an adherent monolayer at 37° C., 5% CO2 in DMEM/Ham's F12+10% FBS (Hyclone SH3007.03T in the presence of 2.5 mM ARL-15896 (AdooQ Bioscience, Irvine Calif.). To prepare the cells for an experiment, they were rinsed with Dulbecco's PBS (Ca^2+ and Mg^2+ free) and detached from the flask with TrypLE™ Express (Life Technologies, Carlsbad, Calif.) using the manufacturer's recommended methods. Cells collected from the flask were washed twice in Ca^2+/Mg^2+-free Hanks Balanced Salt Solution+20 mM HEPES (HBSS), and counted and assessed for viability with trypan blue. Washed cells were then dye-loaded by resuspending in Fluo-8/AM calcium sensitive dye plus Component B (AAT Bioquest, Sunnyvale, Calif.) diluted in HBSS. To allow cells to take up fluo-8 dye, they were incubated in the dark for 15 min at 37° C., followed by 30 min at 22-25° C. After dye-loading, cells were washed and resuspended in HBSS and plated in 384-well plates (Falcon 353962; Corning, Big Flats, N.Y.) at 20,000-30,000 cells/well in a final volume of 25 μl/well. The cell plates were centrifuged at 200×g, for 2 minutes at 21° C., to create a monolayer of cells at the bottom of the wells.
To initiate an assay, 10 μl of test compound or buffer was added to each well of the cell plate and pre-incubated for 10 minutes in the dark. After 10 minutes, the cell plate was placed in a FDSS 6000 plate reader (Hamamatsu Photonics, Middlesex, N.J.); baseline fluorescence readings were collected for 20 seconds. Next, 25 μl of agonist solution (3 μM glutamate, 3 μM glycine, and 1 mM Ca^2+ in HBSS) was added and the change in fluorescence was recorded for 3 minutes.
Results were calculated by comparing the effects of test compounds to that of the literature standard GluN2C/D PAM CIQ (100 uM). The increase in fluorescence in the presence of CIQ minus the increase induced by glutamate+glycine alone was set to 100%. Responses induced by compounds that were larger than gain the presence of the standard concentration of CIQ were greater than 100% and lesser responses were less than 100%.
Take `CC(C)(C)c1ncc(-c2nc3ccccn3c(=O)c2C#N)cn1` [Example 20, 2-(2-(tert-butyl)pyrimidin-5-yl)-4-oxo-4H-pyrido[1,2-a]pyrimidine-3-carbonitrile]: the Emax lay in the range of 100 to 200%. Still for that read-out and setting: the figure for `CC(C)(C)c1ccc(-c2nc3n(c(=N)c2C#N)CCCS3)cc1` [Example 36, 8-(4-(tert-butyl)phenyl)-6-imino-3,4-dihydro-2H,6H-pyrimido[2,1-b][1,3]thiazine-7-carbonitrile] is 100 to 200%.

Regarding `CC(C)(C)c1ccc(-c2nc3n(c(=O)c2C#N)CCCS3)s1` [Example 177, 8-(5-tert-butylthiophen-2-yl)-6-oxo-2H,3H,4H,6H-pyrimido[2,1-b][1,3]thiazine-7-carbonitrile], the Emax is 100 to 200%.

For `Cc1ccc(-c2nc3n(c(=O)c2C#N)CCCS3)cc1` [Example 185, 8-(4-methylphenyl)-6-oxo-2H,3H,4H,6H-pyrimido[2,1-b][1,3]thiazine-7-carbonitrile], the Emax lay in the range of 50 to 100%. Turning to `COc1ccc(-c2nc3n(c(=O)c2C#N)CCCS3)c(OC)c1` [Example 186, 8-(2,4-dimethoxyphenyl)-6-oxo-2H,3H,4H,6H-pyrimido[2,1-b][1,3]thiazine-7-carbonitrile], the Emax fell in the range of 10 to 50%. Consider `COc1ccccc1-c1nc2n(c(=O)c1C#N)CCCS2` [Example 188, 8-(2-methoxyphenyl)-6-oxo-2H,3H,4H,6H-pyrimido[2,1-b][1,3]thiazine-7-carbonitrile], for which the Emax was 10 to 50%.

For `N#Cc1c(-c2ccc(-c3ccccc3)cc2F)nc2n(c1=O)CCCS2` [Example 194, 3,4-dihydro-8-(2-fluoro-4-phenylphenyl)-6-oxo-2H,6H-pyrimido[2,1-b][1,3]thiazine-7-carbonitrile], the Emax lay in the range of 10 to 50%. Same read-out and setting: the figure for `CC(C)(C)c1ccc(-c2nc3n(c(=O)c2C#N)CC2(CC2)CS3)cc1` [Example 203, 8′-(4-tert-butylphenyl)-6′-oxo-4′,6′-dihydro-2′H-spiro[cyclopropane-1,3′-pyrimido[2,1-b][1,3]thiazine]-7′-carbonitrile] is 100 to 200%. The same measure, in the same setting: next, `CSc1ccc(-c2nc3n(c(=O)c2C#N)CCS3)cc1` [Example 207, 7-[4-(methylsulfanyl)phenyl]-5-oxo-2H,3H,5H-[1,3]thiazolo[3,2-a]pyrimidine-6-carbonitrile]: 100 to 200%. On the same count and under the same terms, next, `CC(C)(C)c1ccc(-c2nc3scc(N)n3c(=O)c2C#N)cc1` [Example 210, 3-amino-7-(4-tert-butylphenyl)-5-oxo-5H-thiazolo[3,2-a]pyrimidine-6-carbonitrile]: 10 to 50%.

In a further assay the target is T2, human GRIN1 (transcript variant NR1-3) and GRIN2D expressed in Xenopus oocytes (Homo sapiens, UniProt O15399).
T2 construct: GenScript (GRIN2D synthesis) SC115601; host or cells: Xenopus oocytes injected with cRNA (1 GluN1 : 2 GluN2)
T2 sequence (O15399 28-1336, other chains not shown): as above
The experiment in a line: NR2D oocyte potentiation assay (two-electrode voltage clamp). Format: cell-based. To be noted: 10 uM test compound; glutamate and glycine 10 μM each; holding potential −40 mV. Put shortly: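 Xenopus oocytes were defolliculated with collagenase, then injected with 50 nL of cRNA encoding human GluN1 (NR1-3 variant) and GluN2D mixed 1:2 and kept 72 h at 16° C. Two-electrode voltage clamp at −40 mV recorded currents; after 10 μM glutamate plus 10 μM glycine reached plateau, test compound was added until a new plateau formed.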
A general note: In two-electrode clamp one electrode senses voltage and the other passes current.
With `CC(C)(C)c1ncc(-c2nc3ccccn3c(=O)c2C#N)cn1` [Example 20, 2-(2-(tert-butyl)pyrimidin-5-yl)-4-oxo-4H-pyrido[1,2-a]pyrimidine-3-carbonitrile], the activation at 10 µM was 100 to 500%. Take `CC(C)(C)c1ccc(-c2nc3n(c(=N)c2C#N)CCCS3)cc1` [Example 36, 8-(4-(tert-butyl)phenyl)-6-imino-3,4-dihydro-2H,6H-pyrimido[2,1-b][1,3]thiazine-7-carbonitrile]: the activation at 10 µM was in the range of 500 to 1000%. Same read-out and setting: next, `CN(C)C(=O)C1CSc2nc(-c3cnc(C(C)(C)C)c(F)c3)c(C#N)c(=O)n2C1` (stereo not drawn) [Example 161, 8-(6-(tert-butyl)-5-fluoropyridin-3-yl)-7-cyano-N,N-dimethyl-6-oxo-3,4-dihydro-2H,6H-pyrimido[2,1-b][1,3]thiazine-3-carboxamide]: 100 to 500%; `CC(C)(C)c1ncc(-c2nc3n(c(=O)c2C#N)CC(C(=O)N2CCOCC2)CS3)cc1F` (stereo not drawn) [Example 162, 8-(6-(tert-butvl)-5-fluoropyndin-3-yl)-3-(morpholine-4-carbonyl)-6-oxo-3,4-dihydro-2H,6H-pyrimido[2,1-b][1,3]thiazine-7-carbonitrile]: 100 to 500%; `CNC(=O)C1CSc2nc(-c3cnc(C(C)(C)C)c(F)c3)c(C#N)c(=O)n2C1` (stereo not drawn) [Example 163, 8-(6-(tert-butyl)-5-fluoropyridin-3-yl)-7-cyano-N-methyl-6-oxo-3,4-dihydro-2H,6H-pyrimido[2,1-b][1,3]thiazine-3-carboxamide]: greater than 1000%. Regarding `CSCC1COc2nc(-c3cnc(C(C)(C)C)c(F)c3)c(C#N)c(=O)n2C1` (stereo not drawn) [Example 164, 8-(6-(tert-butyl)-5-fluoropyridin-3-yl)-3-((methylthio)methyl)-6-oxo-3,4-dihydro-2H,6H-pyrimido[2,1-b][1,3]oxazine-7-carbonitrile], the activation at 10 µM was in the range of 10 to 100%.

In the case of `COCSCC1COc2nc(-c3cnc(C(C)(C)C)c(F)c3)c(C#N)c(=O)n2C1` (stereo not drawn) [Example 165, 8-(6-tert-butyl-5-fluoropyridin-3-yl)-3-{[(methoxymethyl)sulfanyl]methyl}-6-oxo-2H,3H, 4H,6H-pyrimido [2,1-b][1,3] oxazine-7-carbonitrile], the activation at 10 µM was greater than 1000%. As for `COC[C@H]1CSc2nc(-c3cnc(C(C)(C)C)c(F)c3)c(C#N)c(=O)n2C1` [Example 166, (S)-8-(6-(tert-butyl)-5-fluoropyridin-3-yl)-3-(methoxymethyl)-6-oxo-3,4-dihydro-2H,6H-pyrimido[2,1-b][1,3]thiazine-7-carbonitrile], the activation at 10 µM is greater than 1000%. As to `COC[C@@H]1CSc2nc(-c3cnc(C(C)(C)C)c(F)c3)c(C#N)c(=O)n2C1` [Example 167, (R)-8-(6-(tert-butyl)-5-fluoropyridin-3-yl)-3-(methoxymethyl)-6-oxo-3,4-dihydro-2H,6H-pyrimido[2,1-b][1,3]thiazine-7-carbonitrile], the activation at 10 µM is greater than 1000%.

`CC(=O)NC[C@H]1CSc2nc(-c3cnc(C(C)(C)C)c(F)c3)c(C#N)c(=O)n2C1` [Example 168, (R)-N-((8-(6-(tert-butyl)-5-fluoropyridin-3-yl)-7-cyano-6-oxo-3,4-dihydro-2H,6H-pyrimido[2,1-b][1,3]thiazin-3-yl)methyl)acetamide]: the activation at 10 µM lay within 500 to 1000%.

`CC(=O)NC[C@@H]1CSc2nc(-c3cnc(C(C)(C)C)c(F)c3)c(C#N)c(=O)n2C1` [Example 169, (S)-N-((8-(6-(tert-butyl)-5-fluoropyridin-3-yl)-7-cyano-6-oxo-3,4-dihydro-2H,6H-pyrimido[2,1-b][1,3]thiazin-3-yl)methyl)acetamide]: the activation at 10 µM was greater than 1000%. Consider `COCOCC1CSc2nc(-c3cnc(C(C)(C)C)c(F)c3)c(C#N)c(=O)n2C1` (stereo not drawn) [Example 170, 8-(6-(tert-butyl)-5-fluoropyridin-3-yl)-3-((methoxymethoxy)methyl)-6-oxo-3,4-dihydro-2H,6H-pyrimido[2,1-b][1,3]thiazine-7-carbonitrile], for which the activation at 10 µM was greater than 1000%. With `COCOC[C@H]1CSc2nc(-c3cnc(C(C)(C)C)c(F)c3)c(C#N)c(=O)n2C1` [Example 171, (S)-8-(6-(tert-butyl)-5-fluoropyridin-3-yl)-3-((methoxymethoxy)methyl)-6-oxo-3,4-dihydro-2H,6H-pyrimido[2,1-b][1,3]thiazine-7-carbonitrile], the activation at 10 µM is greater than 1000%. `COCOC[C@@H]1CSc2nc(-c3cnc(C(C)(C)C)c(F)c3)c(C#N)c(=O)n2C1` [Example 172, (R)-8-(6-(tert-butyl)-5-fluoropyridin-3-yl)-3-((methoxymethoxy)methyl)-6-oxo-3,4-dihydro-2H,6H-pyrimido[2,1-b][1,3]thiazine-7-carbonitrile]: the activation at 10 µM was greater than 1000%. For the molecule `CC(C)(C)OCC1CSc2nc(-c3cnc(C(C)(C)C)c(F)c3)c(C#N)c(=O)n2C1` (stereo not drawn) [Example 173, 3-(tert-butoxymethyl)-8-(6-(tert-butyl)-5-fluoropyridin-3-yl)-6-oxo-3,4-dihydro-2H,6H-pyrimido[2,1-b][1,3]thiazine-7-carbonitrile], the activation at 10 µM lay in the range of 10 to 100%. Regarding `N#Cc1c(-c2ccnc(C3CC3)n2)nc2n(c1=O)CCCS2` [Example 180, 8-(2-cyclopropylpyrimidin-4-yl)-6-oxo-2H,3H,4H,6H-pyrimido[2,1-b][1,3]thiazine-7-carbonitrile], the activation at 10 µM was less than 10%. Take `COc1cc(C(C)(C)C)ccc1-c1nc2n(c(=O)c1C#N)CCCS2` [Example 193, 8-(4-tert-butyl-2-methoxyphenyl)-6-oxo-2H,3H,4H,6H-pyrimido[2,1-b][1,3]thiazine-7-carbonitrile]: the activation at 10 µM was 100 to 500%.

For the origin of these results see patent US11807650B2, “NMDA receptor modulators and uses thereof” (Novartis AG, priority 2016, dated 2023).
